From patent US8314123B2, “5, 6, or 7-substituted -3-(hetero) arylisoquinolinamine derivatives and therapeutic use thereof” (Rexahn Pharmaceuticals, Inc., priority 2006, dated 2012) come the findings set out here.

As usually defined, the IC50 is the midpoint of a concentration-inhibition curve.

Like-named read-outs stand apart in the source and are kept apart here.

One assay concerns MDA-MB-231 (breast). The experiment in a line: In vitro cell proliferation assay (SRB), MDA-MB-231. The assay is classed as cell-based. Particulars: Homo sapiens, SRB method, 96 hours, read-out: Inhibition of cell growth (IC50, μM) MDA-MB-231. The procedure: (§1) Cancer cell lines to determine the effect of 5, 6, or 7-substituted-3-(hetero)arylisoquinolinamine compounds were obtained from the following sources: Human MDA-MB-231 (breast), PC3 (prostate), HCT-15 (colon), HCT116 (colon), OVCAR-3 (ovary), Caki-1 (kidney), PANC-1 (pancreas), SNB-19 (glioblastoma) and SK-MEL-28 (melanoma) from the American Type Culture Collection (ATCC) (Manassas, Va.). PC3, OVCAR-3, SK-MEL-28 and SNB-19 were grown in RPMI1640 medium (Invitrogen, Carlsbad, Calif.) supplemented with 10% fetal bovine serum (“FBS”), 1 mM sodium pyruvate, 10 mM HEPES and 100 U/ml penicillin and 100 μg/ml streptomycin (“P/S”). MDA-MB-231, Caki-1, HCT-15 (colon) and PANC-1 cells were maintained in Dulbecco's modified Eagle's medium (“DMEM”, Invitrogen) supplemented with 10% FBS, P/S and 10 mM HEPES. HCT116 cells were maintained in DMEM supplemented with 10% FBS, P/S and 10 mM HEPES for in vitro cell proliferation assay and in RPMI1640 medium supplemented with 10% FBS, 1 mM sodium pyruvate, 10 mM HEPES and P/S for in vitro cell cycle analysis. All cells were incubated at 37° C. under humidified 5% CO2.
(§2) The growth inhibition of the 5, 6, or 7-substituted-3-(hetero)arylisoquinolinamine derivatives against a variety of human tumor cells was evaluated to study the relative importance of particular substituent groups on the compounds. The 5, 6, or 7-substituted-3-(hetero)arylisoquinolinamine derivatives, prepared as described above, were tested with DMSO as a control.
(§3) The growth inhibition assay of representative 5, 6, or 7-substituted-3-(hetero)arylisoquinolinamine derivatives against human tumor cell lines was performed using the Sulforhodamine B (“SRB”) method (Skehan et al., J. National Cancer Institute, 82: 1107-1112 (1990)). Briefly, exponentially growing tumor cells were seeded into a 96-well plate at a density of 2-3×10^3 cells/well and treated with 5, 6, or 7-substituted-3-(hetero)arylisoquinolinamine compounds the next day. Triplicate wells were used for each treatment. The cells were incubated with the various compounds for 96 hours at 37° C. in a humidified 5% CO2 atmosphere. After 96-hour incubation, cells were fixed with 10% trichloroacetic acid (“TCA”), incubated for 1 hour at 4° C., and washed 3 times with tap water. Subsequently, cells were stained with 0.4% sulforhodamine B in 1% acetic acid for 30 minutes, washed 4 times with 1% acetic acid, and air-dried again. After 5 minutes agitation in 10 mM Tris solution, the absorbance of each well was measured at 530 nm using Benchmark Plus Microplate reader (Bio-Rad Laboratories, Hercules, Calif.).
(§4) To translate the OD530 values into the number of live cells in each well, the OD530 values were compared to those on standard OD530-versus-cell number curves generated for each cell line. The percent survival was calculated using the formula: % Survival=live cell number [test]/live cell number [control]×100
(§5) The IC50 values were calculated by non-linear regression analysis.

The next assay concerns PANC-1 (pancreas). The assay can be described thus: In vitro cell proliferation assay (SRB), PANC-1. The assay is classed as cell-based. Particulars: Homo sapiens, SRB method, 96 hours, read-out: Inhibition of cell growth (IC50, μM) PANC-1. On the procedure:
as §1, §2, §3, §4, §5
For orientation: The SRB assay estimates cell density from bound dye.

In the next assay the test system is HCT116 (colon). The experiment in a line: In vitro cell proliferation assay (SRB), HCT116. The assay is classed as cell-based. Particulars: Homo sapiens, HCT-116. The procedure: as §1, §2, §3, §4, §5
The next assay relates to PC3 (prostate). The assay can be described thus: In vitro cell proliferation assay (SRB), PC3. Particulars: Homo sapiens; SRB method, 96 hours; read-out: Inhibition of cell growth (IC50, μM) PC3. The assay is classed as cell-based. On the procedure:
as §1, §2, §3, §4, §5

The test system of the next assay is OVCAR-3 (ovary). The experiment in a line: In vitro cell proliferation assay (SRB), OVCAR3. The assay is classed as cell-based. The following applies: Homo sapiens, SRB method, 96 hours, read-out: Inhibition of cell growth (IC50, μM) OVCAR3. The procedure:
as §1, §2, §3, §4, §5

Another assay has as its system SK-MEL-28 (melanoma). The experiment in a line: In vitro cell proliferation assay (SRB), SK-MEL-28. The assay is classed as cell-based. Particulars: Homo sapiens, SRB method, 96 hours, read-out: Inhibition of cell growth (IC50, μM) SK-MEL-28. The procedure: as §1, §2, §3, §4, §5
For another assay, the system named is Caki-1 (kidney). The assay can be described thus: In vitro cell proliferation assay (SRB), Caki-1. The assay is classed as cell-based. Particulars: Homo sapiens, SRB method, 96 hours, read-out: Inhibition of cell growth (IC50, μM) Caki-1. On the procedure:
as §1, §2, §3, §4, §5

The next assay has as its system SNB-19 (glioblastoma). The assay can be described thus: In vitro cell proliferation assay (SRB), SNB19. The assay is classed as cell-based. Particulars: Homo sapiens, SRB method, 96 hours, read-out: Inhibition of cell growth (IC50, μM) SNB19. The procedure: as §1, §2, §3, §4, §5
For another assay, the system named is HCT116 cells. The assay can be described thus: In vitro cell cycle analysis (PI staining). The assay is classed as cell-based, Human. Particulars: HCT116, 0.3 uM, 12 hours; for % Cells in S: DMSO control 20.5; for % Cells in G1: DMSO control 39.4; for % Cells in G2/M: DMSO control 40.1. The procedure: as §1
This assay was used to determine the ability of 5, 6, or 7-substituted-3-(hetero)arylisoquinolinamine compounds to arrest cells at a specific phase during cell cycle. The day before drug treatment, HCT116 cells were plated at 50-70% saturation in a 10 cm dish in RPMI1640 medium with 10% FBS and then incubated overnight in a humidified 37° C. incubator with 5% CO2. The following day RPMI1640 medium (with 10% FBS) carrying the appropriate concentration of test compound solubilized in DMSO was added to the dishes. No compound control treatment was also included (0.25% DMSO). The cells were then incubated for 12 hours and were harvested by centrifugation at 7,000 rpm for 5 minutes. Cell pellets were resuspended in 0.2 ml of PBS containing 0.1% glucose and 2% FBS. Subsequently, 5 ml ice-cold 70% ethanol was added dropwise with shaking and the treated cells were stored at −20° C. at least 30 minutes. Cells were centrifuged at 2,000 rpm for 5 minutes and washed once with 1 ml PBS with 0.1% glucose and 2% FBS. After removal of the supernatant, cells were resuspended in 0.5 ml of 70 μM propium iodide (PI) solution containing 0.1% Triton X-100, 40 mM sodium citrate, pH 7.4. RNase was added at 50 μg/ml final concentration and cells were incubated at 37° C. for 30 minutes. PI stained cells were analyzed by Guava PCA-AFP instrument using its cell cycle software program (Guava Technologies, Hayward, Calif.) and expressed as percentage of cells in G1, S and G2/M phases of the cell cycle.

The next assay has as its system human cancer cell lines. The experiment in a line: Growth inhibition against the panel of human tumor cell lines (SRB), overall statements. The assay is classed as cell-based. The following applies: Table 3 cell lines. The procedure:
as §1, §2, §3, §4, §5
Using QSAR and medicinal chemistry techniques, a large number of compounds, including the compounds shown in Table 1-2 above, were synthesized. The synthesized compounds were screened against at least four cancer cell lines, PANC-1, MDA-MB-231, HCT116 and Caki-1, at approximately 1 μM concentration. Compounds showing activity in at least one of these cell lines were selected for further screening. From these compounds, thirty compounds were selected for further evaluation as broad-spectrum anti-proliferative agents as shown in the following Table 3.

In assay [1] the test system is paclitaxel-resistant HCT-15 colorectal cancer cells. The assay can be described thus: In vitro antitumor effects against paclitaxel-resistant HCT-15 cells. The assay is classed as cell-based, Human. The procedure: as §1, §3, §4, §5
Compound 13 and 14 were tested in colon cancer cells and their antitumor activities were compared with paclitaxel (Taxol®).

The mark [2] stands for this setting: SRB method, 96 hours, Table 3, read-out: Inhibition of cell growth (IC50, μM) HCT116.

For the compound `Cc1ccc2cc(-c3c(C)cccc3C)nc(N)c2c1` [Compound 43, 7-Methyl-3-(2,6-dimethylphenyl)isoquinolin-1-amine], the IC50 in the assay on MDA-MB-231 (breast) came to 0.051 µM; with PANC-1 (pancreas), 0.079 µM; in the assay with HCT116 (colon) (setting [2]) it was 0.074 µM; with PC3 (prostate), 0.12 µM; in the assay on OVCAR-3 (ovary), 0.075 µM; in the assay with SK-MEL-28 (melanoma), 0.12 µM. For the same compound, the IC50 in the assay with Caki-1 (kidney) turned out to be 0.048 µM; with SNB-19 (glioblastoma) it was 0.12 µM. Besides, in the assay on HCT116 cells, the “% Cells in S” value worked out at 10.8%. Moreover, the “% Cells in G1” value in the assay on HCT116 cells is on record as 15.3%. The “% Cells in G2/M” value in the assay with HCT116 cells is listed as 73.9%. Also, the “activity in growth inhibition of human cancer cell compared to Compound 23” value in the assay with human cancer cell lines is listed as “equal or better activity”.

Turning to `Cc1cccc(-c2cc3ccc(N(C)C)cc3c(N)n2)c1.Cl` [Compound 14, N^7,N^7-Dimethyl-3-m-tolylisoquinoline-1,7-diamine hydrochloride], the IC50 in the assay with MDA-MB-231 (breast) was found to be 0.021 µM; in the assay with PANC-1 (pancreas) it was 0.018 µM; in the assay on HCT116 (colon) (setting [2]), 0.023 µM; in the assay with HCT116 (colon) (Table 5, read-out: Inhibition of cell growth, IC50 (μM) HCT116), 0.023 µM; in the assay with PC3 (prostate), 0.024 µM; with OVCAR-3 (ovary), 0.016 µM. Besides, the half-maximal inhibitory concentration (IC50) stood at 0.032 µM in the assay with SK-MEL-28 (melanoma); 0.023 µM with Caki-1 (kidney); 0.028 µM in the assay on SNB-19 (glioblastoma); 0.021 µM in assay [1] (Homo sapiens, paclitaxel-resistant HCT-15, Table 5, read-out: Inhibition of cell growth, IC50 (μM) HCT-15). For the same compound, the “antitumor activity compared with paclitaxel” value in assay [1] (paclitaxel-resistant HCT-15 colorectal cancer cells) is on record as “higher antitumor activities than that of paclitaxel”. In the assay on HCT116 cells, the “% Cells in S” value was determined as 7.6%. Besides, in the assay with HCT116 cells, the “% Cells in G1” value was 10.3%. Besides, the “% Cells in G2/M” value in the assay on HCT116 cells amounted to 82.1%. For the same compound, the “activity in growth inhibition of human cancer cell compared to Compound 23” value in the assay with human cancer cell lines is recorded as “equal or better activity”. In the assay with human cancer cell lines, the “times more active than compound 23 in tested cell lines” value is on record as “five to thirteen times more active”.

With `COc1cc(OC)cc(-c2cc3ccc(N(C)C)cc3c(N)n2)c1.Cl` [Compound 16, 3-(3,5-Dimethoxyphenyl)-N^7,N^7-dimethylisoquinoline-1,7-diamine hydrochloride], the IC50 in the assay with MDA-MB-231 (breast) was 0.027 µM; in the assay with PANC-1 (pancreas), 0.026 µM; in the assay on HCT116 (colon) (setting [2]) it was 0.029 µM; in the assay on PC3 (prostate) it was 0.048 µM; with OVCAR-3 (ovary), 0.025 µM; with SK-MEL-28 (melanoma), 0.045 µM. The values for the IC50 with Caki-1 (kidney) and with SNB-19 (glioblastoma) were 0.038 µM and 0.057 µM, respectively. In the assay on human cancer cell lines, the “activity in growth inhibition of human cancer cell compared to Compound 23” value was “equal or better activity”.

Take `Cc1ccc2cc(-c3ccccc3C)nc(N)c2c1` [Compound 48, 7-Methyl-3-o-tolylisoquinolin-1-amine]: the IC50 stood at 0.075 µM with MDA-MB-231 (breast); 0.2 µM in the assay on PANC-1 (pancreas); 0.12 µM with HCT116 (colon) (setting [2]); 0.26 µM with PC3 (prostate); 0.1 µM in the assay on OVCAR-3 (ovary); 0.18 µM in the assay with SK-MEL-28 (melanoma). The IC50 in the assay with Caki-1 (kidney) stood at 0.14 µM; in the assay with SNB-19 (glioblastoma), 0.16 µM. Also, the “activity in growth inhibition of human cancer cell compared to Compound 23” value with human cancer cell lines was “equal or better activity”.
